How the values were obtained:
P2X purinoceptor 7 [1] = target: T1, P2X purinoceptor 7 (Homo sapiens, UniProt Q99572); assay: Antagonist activity at human P2X7 receptor expressed in THP1 cells assessed as inhibition of BzATP-induced IL-1beta release preincubated for 20 mins followed by stimulation with BzATP for 30 mins by sandwich ELISA; type: cell-based
T1 sequence (Q99572 whole entry): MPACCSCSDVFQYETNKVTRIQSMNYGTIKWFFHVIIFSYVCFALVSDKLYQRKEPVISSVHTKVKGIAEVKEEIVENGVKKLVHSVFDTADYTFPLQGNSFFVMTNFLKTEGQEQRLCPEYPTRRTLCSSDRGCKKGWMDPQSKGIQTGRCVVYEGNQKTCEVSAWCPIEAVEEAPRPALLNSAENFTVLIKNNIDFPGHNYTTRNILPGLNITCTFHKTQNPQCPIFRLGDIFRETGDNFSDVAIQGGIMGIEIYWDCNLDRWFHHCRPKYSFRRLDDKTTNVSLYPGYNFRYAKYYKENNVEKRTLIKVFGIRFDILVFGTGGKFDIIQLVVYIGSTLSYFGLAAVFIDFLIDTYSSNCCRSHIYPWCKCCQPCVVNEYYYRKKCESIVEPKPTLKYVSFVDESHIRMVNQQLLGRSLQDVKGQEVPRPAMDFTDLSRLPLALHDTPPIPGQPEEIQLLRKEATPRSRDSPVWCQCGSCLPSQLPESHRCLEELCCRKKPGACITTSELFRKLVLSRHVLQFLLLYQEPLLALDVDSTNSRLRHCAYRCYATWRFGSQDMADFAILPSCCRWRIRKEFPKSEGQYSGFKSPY

P2X purinoceptor 7 [2] = target: T1, P2X purinoceptor 7; assay: Antagonist activity at human P2X7 receptor expressed in HEK293 cells assessed as inhibition of BzATP-induced pore formation incubated for 20 mins followed by stimulation with BzATP for 30 mins by YO-PRO dye based fluorescence plate reader method; type: cell-based
P2X purinoceptor 7 [3] = target: T1, P2X purinoceptor 7; assay: Antagonist activity at human recombinant P2X7 receptor expressed in HEK293 cells assessed as inhibition of ATP-induced calcium mobilization incubated for 90 mins in presence of ATP by YO-PRO-1 dye based tetra FLIPR assay; type: cell-based
P2X purinoceptor 7 [4] = target: T1, P2X purinoceptor 7; assay: Antagonist activity at human recombinant P2X7 receptor expressed in 1321N1 cells assessed as inhibition of BzATP-induced calcium mobilization incubated for 30 mins measured after 180 seconds by calcium-4 dye based FLIPR assay; type: cell-based
[5] = Efflux ratio of apparent permeability from basolateral to apical over apical to basolateral side in human Caco2 cells at 10 uM after 40 to 60 mins by LC-MS/MS analysis; type: ADME, cell-based; conditions: Caco-2
Rattus norvegicus [6] = assay: Ex vivo inhibition of P2X7 in po dosed rat measured after 1 to 2 hrs by ARG assay; type: functional, organism-based
Cytochrome P450 3A4 = Cytochrome P450 3A4 (Homo sapiens, UniProt P08684); assay: Inhibition of CYP3A4 (unknown origin); type: ADME
Chain of Cytochrome P450 3A4 (P08684 whole entry): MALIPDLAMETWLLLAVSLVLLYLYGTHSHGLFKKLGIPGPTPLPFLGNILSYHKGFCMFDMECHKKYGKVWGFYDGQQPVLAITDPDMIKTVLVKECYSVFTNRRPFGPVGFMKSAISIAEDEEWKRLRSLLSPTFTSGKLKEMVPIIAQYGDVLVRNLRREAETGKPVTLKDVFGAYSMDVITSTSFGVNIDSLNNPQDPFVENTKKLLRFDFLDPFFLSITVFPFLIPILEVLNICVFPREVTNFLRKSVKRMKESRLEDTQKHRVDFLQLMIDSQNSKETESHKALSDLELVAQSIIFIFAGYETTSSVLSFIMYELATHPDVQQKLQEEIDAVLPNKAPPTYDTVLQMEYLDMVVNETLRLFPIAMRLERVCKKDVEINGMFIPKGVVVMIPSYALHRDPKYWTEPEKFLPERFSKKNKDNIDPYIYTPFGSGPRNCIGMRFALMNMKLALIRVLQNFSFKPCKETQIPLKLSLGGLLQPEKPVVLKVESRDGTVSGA

P2X purinoceptor 7 [7] = target: T2, P2X purinoceptor 7 (Rattus norvegicus, UniProt Q64663); assay: Antagonist activity at rat P2X7 receptor expressed in 1321N1 cells assessed as inhibition of BzATP-induced calcium mobilization incubated for 30 mins measured after 180 seconds by calcium-4 dye based FLIPR assay; type: cell-based
T2 sequence (Q64663 whole entry): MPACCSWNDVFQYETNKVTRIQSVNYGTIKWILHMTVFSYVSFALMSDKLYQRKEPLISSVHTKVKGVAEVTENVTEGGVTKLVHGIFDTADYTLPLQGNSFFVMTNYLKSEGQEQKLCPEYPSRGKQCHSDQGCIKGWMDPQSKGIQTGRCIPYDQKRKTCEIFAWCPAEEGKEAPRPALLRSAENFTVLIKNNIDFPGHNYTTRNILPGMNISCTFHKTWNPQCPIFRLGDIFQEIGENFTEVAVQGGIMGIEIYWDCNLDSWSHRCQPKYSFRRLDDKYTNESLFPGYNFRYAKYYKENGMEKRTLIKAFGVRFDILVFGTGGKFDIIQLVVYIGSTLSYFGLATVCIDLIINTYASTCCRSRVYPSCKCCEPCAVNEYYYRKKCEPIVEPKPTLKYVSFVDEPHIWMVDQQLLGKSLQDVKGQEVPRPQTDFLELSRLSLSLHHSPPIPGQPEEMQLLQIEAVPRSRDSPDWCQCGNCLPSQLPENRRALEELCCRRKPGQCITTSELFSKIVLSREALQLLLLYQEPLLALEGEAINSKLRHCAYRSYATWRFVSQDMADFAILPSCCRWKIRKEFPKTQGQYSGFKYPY

[8] = Oral bioavailability in rat at 10 mg/kg; type: ADME, organism-based; conditions: in vivo
[9] = Ratio of drug level in brain to plasma in rat at 10 mg/kg, po; type: ADME, organism-based; conditions: read-out: BPR
Rattus norvegicus [10] = assay: Ex vivo receptor occupancy at P2X7 receptor in rat at 10 mg/kg, po; type: functional
[11] = Cmax in dog at 2.5 mg/kg, po; type: ADME, organism-based, Canis lupus familiaris; design: dose 2.5 mg/kg, route oral; conditions: in vivo
[12] = Oral bioavailability in dog at 2.5 mg/kg; type: ADME, organism-based, Canis lupus familiaris; conditions: in vivo
[13] = Fraction unbound in human plasma; type: ADME, cell-free
P2X purinoceptor 7 [14] = target: T1, P2X purinoceptor 7; assay: Antagonist activity at human P2X7 receptor expressed in HEK293 cells assessed as inhibition of BzATP-induced calcium mobilization monitored for 5 mins followed by stimulation with BzATP measured after 3 mins by Fluo-8 NW dye based tetra FLIPR assay; type: cell-based
P2X purinoceptor 7 [15] = target: T1, P2X purinoceptor 7; assay: Antagonist activity at human P2X7 receptor expressed in HEK293 cells assessed as inhibition of BzATP-induced calcium mobilization incubated for 30 mins by Fluo-4 NW dye based tetra FLIPR assay; type: cell-based
[16] = Fraction unbound in rat plasma; type: ADME, cell-free

Row | SMILES | IC50 (P2X purinoceptor 7 [4]) [nM] | efflux ratio at 10 µM [5] | IC50 (P2X purinoceptor 7 [7]) [nM] | also measured
1 | CN(C)C(=O)CCNc1ccc2c(C(=O)NCC3CCC(F)(F)CC3)c(Cl)ccc2n1 | – | – | – | IC50 (P2X purinoceptor 7 [1]): < 10 nM; IC50 (P2X purinoceptor 7 [2]): < 10 nM
2 | C[C@H]1CC[C@@](O)(CNC(=O)c2cc(C3CCOC3)n3cccc(Cl)c23)CC1 (stereo partly drawn) | – | – | – | IC50 (P2X purinoceptor 7 [1]): < 10 nM; IC50 (P2X purinoceptor 7 [2]): < 10 nM
3 | O=C(NCC1(c2ccc(Cl)nc2)CCCCC1)C1CCCc2[nH]ccc21 (stereo not drawn) | – | – | – | IC50 (P2X purinoceptor 7 [3]): 3.4 nM
4 | CCc1nnc2n1CCN(C(=O)c1cccc(C(F)(F)F)c1Cl)[C@@H]2c1ccccc1 | 2.4 | 3.24 | – | –
5 | Cc1nc2c(c(-c3ccn[nH]3)n1)C[C@@H](C)N(C(=O)c1ccc(Cl)cc1F)C2 | 19 | – | – | EC50 (Rattus norvegicus [6]): 100 nM; IC50 (Cytochrome P450 3A4): > 10000 nM
6 | CC(C)(C)c1nnc2n1CCN(C(=O)c1cccc(C(F)(F)F)c1Cl)[C@@H]2c1ccccc1 | 11 | 2 | – | –
7 | O=C(c1cccc(C(F)(F)F)c1Cl)N1CCn2c(C3CC3)nnc2[C@H]1c1ccccc1 | 6.9 | 3.33 | 17 | –
8 | O=C(c1cccc(C(F)(F)F)c1Cl)N1CCn2c(nnc2C(F)(F)F)[C@H]1c1ccccc1 | 8.7 | 0.75 | 42 | bioavailability [8]: 78%; Kp [9]: 0.5; Occ (Rattus norvegicus [10]): >80%
9 | CCCCc1nnc2n1CCN(C(=O)c1cccc(C(F)(F)F)c1Cl)[C@@H]2c1ccccc1 | 8.5 | 1.22 | 20 | –
10 | Cc1nnc2n1CCN(C(=O)c1cccc(C(F)(F)F)c1Cl)[C@@H]2c1ccccc1 | 2.7 | 5.1 | 27 | –
11 | O=C(NCC(c1cnc(C(F)(F)F)nc1)N1CCOCC1)c1c(Cl)ccc2[nH]ccc12 (stereo not drawn) | – | – | – | IC50 (P2X purinoceptor 7 [3]): 3.9 nM
12 | O=C(c1cccc(C(F)(F)F)c1Cl)N1CCn2cnnc2[C@H]1c1ccccc1 | 4.5 | 4.5 | 64 | –
13 | Cc1nc2c(c(-c3ccn[nH]3)n1)C[C@@H](C)N(C(=O)c1cccc(C(F)(F)F)c1Cl)C2 | – | – | – | EC50 (Rattus norvegicus [6]): 8 nM; Cmax [11]: 571 nM; IC50 (Cytochrome P450 3A4): 3300 nM; bioavailability [12]: 35%
14 | Cc1nc2c(c(-c3ccccc3)n1)CCN(C(=O)c1cccc(C(F)(F)F)c1Cl)C2 | 240 | – | – | fraction unbound [13]: 0.032
15 | O=C(NCC(CC1(C(F)F)CC1)c1ccc(C2CC2)nc1)c1cccc(Cl)c1Cl (stereo not drawn) | – | – | – | IC50 (P2X purinoceptor 7 [14]): 0.79 nM
16 | O=C(NCC1(c2ccc(Cl)nc2)CCCCC1)c1c(Cl)ccc2[nH]ccc12 | – | – | – | IC50 (P2X purinoceptor 7 [3]): 3.2 nM
17 | Cc1ncc(C(CNC(=O)c2cc(-c3ncc(F)cn3)ccc2Cl)N2CCCC(F)(F)C2)s1 (stereo not drawn) | – | – | – | IC50 (P2X purinoceptor 7 [15]): 22 nM
18 | Cc1nc2c(c(-c3ccn[nH]3)n1)CCN(C(=O)c1cccc(C(F)(F)F)c1Cl)C2 | 8.5 | – | 1140 | fraction unbound [16]: 0.074

— ChEMBL document CHEMBL4425156, “The evolution of P2X7 antagonists with a focus on CNS indications” (Bioorg Med Chem Lett, 2016)
